This data set can be described thus: Double-blind randomized crossover pharmacokinetic study, single oral 900 μg vitamin D3 or 25(OH)D3. As to conditions: for Cmax / Tmax / concentration at 14 days / half-life / AUC: both sexes, human, in vivo, po, single oral 900 μg, mean ± SEM; for Cmax / Tmax / half-life / AUC: 900 ug; for concentration at 14 days: 900 μg, read-out: Ctrough (trough level at day 14); for half-life: read-out: T1/2 (elimination half-life) (converted); for blood level of vitamin D3 relative to Cmax: FIG. 4a, turning point after about 2% days, single oral 900 μg vitamin D3. Format: in vivo, human. As to the method:
The conclusions as presented herein are based on the following experiments: In a double-blinded cross-over study single high dosages (900 μg total in two soft gel capsules containing 450 μg) of either vitamin D3 or 25(OH)D3 were administered to vitamin D-deficient volunteers including healthy controls as well as subjects with a history of malabsorption. At the outset, the BMI was determined. Blood samples were then taken at baseline and at 2, 4, 6, 8, and 12 hours as well as 1, 2, 3, 7, and 14 days after administration (FIG. 2). All the samples were analyzed for their contents in vitamin D3 per se as well as 25(OH)D3. […] In addition, peak levels were more rapidly reached with 25(OH)D3 than with vitamin D3 (see FIG. 5). The immediate increase in serum 25(OH)D3 compared to the delayed increase observed with vitamin D3 supports the concept that 25(OH)D3 is being rapidly absorbed from the small intestine into the portal circulation, whereas vitamin D3 first needs to be incorporated into the chylomicrons which are absorbed into the lymphatic system.
The pharmacokinetic parameters of orally administered 25(OH)D3 and vitamin D3 (both provided for formulation in form of visually identical soft-gel pills) were studied based on the corresponding serum concentration-time curves in healthy adults and adults with a history of intestinal malabsorption (see FIG. 2). Cinical safety has been evaluated by monitoring serum calcium, phosphorus, parathyroid hormone (PTH) and 25(OH)D levels at the beginning and end of the study. Furthermore, the distribution of supplemented 25(OH)D3 (or 25(OH)D2) into adipose tissue and the role it is playing there was also studied.
Serum levels of calcium, phosphorus, albumin, creatinine and intact parathyroid hormone (iPTH) were determined at baseline and at the end of each 14-day pharmacokinetic study (see Table 4). The pharmacokinetic parameters have been determined by evaluating the serum concentration-time curves in patients with malabsorption syndrome and healthy controls (Tables 5 and 6).
The primary outcomes of the study are the serum pharmacokinetic parameters of 25(OH)D3 and vitamin D3 after a single oral administration of 900 μg of each in a double-blind randomized crossover study.
Adult patients (18 years and older) with a history of intestinal malabsorption (n=10) and healthy adult volunteers (n=10); (of both sexes and all ethnicities) has been recruited in this randomized double-blinded crossover study. The BMI has been determined and recorded at baseline. All subjects have been prescreened for 25(OH)D levels to include subjects with 25(OH)D<30 ng/mL. The subjects have been randomized to receive two oral doses of 450 μg taken simultaneously (total 900 μg) of either vitamin D3 or 25(OH)D3. Blood samples were taken at baseline and at 2, 4, 6, 8, 12 hours and days 1, 2, 3, 7 and 14. There was a two weeks washout period before the subject received in a double blinded manner, two oral doses of 450 μg taken simultaneously (total 900 μg) of either 25(OH)D3 or vitamin D3 (depending on which one they took in the randomization) any time after the 2 week washout. Blood samples were taken at baseline and at 2, 4, 6, 8, 12 hours and days 1, 2, 3, 7 and 14 days. Serum levels of calcium, phosphorus, albumin, creatinine, and intact parathyroid hormone (iPTH) were obtained at baseline and at day 14 for each arm (or within a reasonable time if the study participant was unable to come on the exact day).
The individuals participating in the study had, after signing a consent form, been randomized by a computer randomization chart in a blinded manner to receive two oral doses of 450 μg taken simultaneously (total 900 μg) of either vitamin D3 or 25(OH)D3. Blood samples have been taken at baseline and at 2, 4, 6, 8, 12 hours and days 1, 2, 3, 7 and 14. […]

The mark [1] stands for this setting: healthy participants with higher BMI (N = 5).
Where [2] appears, read: healthy participants with lower BMI (N = 5).
[3] abbreviates: patients with fat malabsorption (N = 6).

Read-outs that look alike come from different tables or passages of the source.

These results are taken from patent US20230248744A1, “25-HYDROXYVITAMIN D2 AND/OR D3 FOR USE IN OBESITY” (CARBOGEN AMCIS B.V., priority 2020, published 2023).

As a reminder, the Cmax is the maximum level reached in the sampled fluid or tissue. One may read the Tmax as the time at which the peak concentration occurs. The term AUC denotes concentration integrated over time.

`C=C1CC[C@H](O)C/C1=C/C=C1\CCC[C@]2(C)[C@@H]([C@H](C)CCCC(C)C)CC[C@@H]12` [vitamin D3, cholecalciferol]: the “time at which the peak of the serum concentration is reached” value (FIG. 5, oral 900 μg) was “about 12 hours”. Also, the “bioavailability in subjects with a history of vitamin D/fat malabsorption” value (after administration of the respective product, FIGS. 3a and b) is on record as “reduced”. For the same molecule, the maximum concentration (Cmax) runs as follows: (healthy participants (N = 10)) 53.5 ± 6 ng/mL; under setting [1], 44.4 ± 9.3 ng/mL; under setting [2], 62.6 ± 5.7 ng/mL; under setting [3], 24.3 ± 8.4 ng/mL. Besides, the Tmax was 10.4 ± 0.7 h (healthy participants (N = 10)), 9.6 ± 1 h under setting [1], 11.2 ± 0.8 h under setting [2] and 11.3 ± 0.7 h under setting [3]. The concentration at 14 days by setting is: (healthy participants (N = 10)) 0.3 ± 0.3 ng/mL; under setting [1], 0 ng/mL; under setting [2], 0.6 ± 0.6 ng/mL; under setting [3], 0.1 ± 0.1 ng/mL. For the same molecule, the half-life (healthy participants (N = 10)) was 31.4 ± 3.3 h, the half-life under setting [1] is 23.8 ± 3.1 h, the half-life under setting [2] is 39 ± 3.4 h and the half-life under setting [3] is 28.7 ± 1.5 h. The exposure (AUC) by setting is: (healthy participants (N = 10), serum level of the administered substance) 3260 ± 496 ng·h/mL; under setting [1], 2090 ± 547 ng·h/mL; under setting [2], 4430 ± 350 ng·h/mL; (patients with fat malabsorption (N = 6), serum level of the administered substance) 1180 ± 425 ng·h/mL. Also, the “blood level of vitamin D3 relative to Cmax” value is, setting by setting: (high BMI subjects) “≈ 23 % of Cmax”; (low BMI (normal) subjects) 41 % of Cmax and ≈ 41 % of Cmax.
